No end group written: not given here.
Assays:
[1] = tested on: Human peripheral neutrophils; assay: PMA induced activation of neutrophil oxidative metabolism (DCFH-DA oxidation); format: cell-based
From the text: (§1) Human peripheral neutrophils were isolated from heparinized blood donated by healthy volunteers according to a protocol approved by the University of Illinois Institutional Review Board. The cells were isolated using a Histopaque™ gradient (Sigma) according to the manufacturer's instructions. Cell viability and identity was confirmed by trypan blue staining. Live cells and neutrophils represented at least 95% of isolated leukocytes.
(§2) The method for the measurement of oxidative activation of neutrophils was based on the ROS-dependent oxidation of DCFH-DA to DCF and was adapted from Ciapetti et al. DCFH-DA crosses the cell membrane and is hydrolyzed by nonspecific esterases to nonfluorescent DCFH. Its oxidation by ROS results in the generation of highly fluorescent DCF [30]. DCFH-DA is therefore a widely accepted probe for the measurement of an overall index of oxidative activity. DCFH-DA was purchased from Calbiochem (Madison, Wis.). The assays were run in clear bottom black 96-well plate. “Edge effects” (a higher fluorescence in edge wells) were avoided by using only center wells. Briefly, 50 μl of Dulbecco's Phosphate Buffered Saline (DPBS) containing DCFH-DA was added to each well with the final concentration of […]. S100 proteins or PKC inhibitors were diluted in the wells. Just before a baseline reading 100,000 neutrophils in 50 μl PBS were placed in each well. 96-well plates were incubated at 37° C. and 5% CO2 and were read at baseline (immediately after cell addition to the plates) and at indicated time points in a Spectra Max Gemini XS fluorescent plate reader. The excitation wavelength was 485 and the reading was done at 530 nm. Wells with no DCFH-DA were used to measure background fluorescence which was subtracted from each reading. Controls with no cells were also analyzed and display no increased fluorescence over time. All assays were conducted in triplicate or quadruplicate wells.

[2] = tested on: Human peripheral neutrophils; assay: Spontaneous oxidative activation of neutrophils (DCFH-DA oxidation); format: cell-based; details: for rate of oxidation of the DCFH probe with soluble PAR ligands: soluble peptides given as 100 mM (FIG. 5); for rate of spontaneous oxidation of the DCFH-DA probe: 2.5 to 10 μg/ml of protein, followed over time, p <0.001 to <0.05; for oxidative metabolism (fluorescence emission of DCFH-DA probe): 1 h time point, all concentrations tested, P<0.05 compared to control; for spontaneous oxidation of the DCFH probe with protease inhibitors: α1 antichymotrypsin and elafin printed as 10 mM (FIG. 4)
From the text: as §1, §2
In order to avoid differences between donors, experimental procedures and plate to plate variation, all experimental conditions and statistical analysis were run within one plate inclusive of all positive and negative controls. Single sample t-tests were calculated to test the S100A8, S100A9 and combined proteins in comparison to the control wells with alpha set to ≦0.05 to determine statistical significance. Comparisons between the S100A8, S100A9 and combined proteins were calculated with two sample t-tests using SPSS (SPSS Inc., Chicago, Ill.) with alpha set to ≦0.05 to determine statistical relevance.

[3] = tested on: Human peripheral neutrophils; assay: LPS stimulated neutrophil oxidative metabolism (DCFH-DA oxidation); format: cell-based
From the text: as §1, §2

thrombin receptors = assay: Calcium flux and thrombin-S100A8/A9 cross-desensitization in Chem-3 cells; format: cell-based; details: for calcium flux in Chem-3 cells: each alone
Protocol: (§3) Screening for S100A8 and S100A9 activity on thrombin receptors including thrombin receptor desensitization were conducted with calcium flux assays in Chem 3 and PAR-4 expressing Chem.-1 cells by Millipore's GPCRProfiler(R) Service (Millipore, St. Charles, Mo.; see website Millipore website on the internet).

PAR-4 = target: T1, PAR-4 (Homo sapiens, UniProt Q96RI0); assay: Calcium flux and desensitization to thrombin in PAR-4 expressing Chem.-1 cells; format: cell-based
T1 construct: host or cells: Chem-1 cells
T1 sequence (Q96RI0 18-385): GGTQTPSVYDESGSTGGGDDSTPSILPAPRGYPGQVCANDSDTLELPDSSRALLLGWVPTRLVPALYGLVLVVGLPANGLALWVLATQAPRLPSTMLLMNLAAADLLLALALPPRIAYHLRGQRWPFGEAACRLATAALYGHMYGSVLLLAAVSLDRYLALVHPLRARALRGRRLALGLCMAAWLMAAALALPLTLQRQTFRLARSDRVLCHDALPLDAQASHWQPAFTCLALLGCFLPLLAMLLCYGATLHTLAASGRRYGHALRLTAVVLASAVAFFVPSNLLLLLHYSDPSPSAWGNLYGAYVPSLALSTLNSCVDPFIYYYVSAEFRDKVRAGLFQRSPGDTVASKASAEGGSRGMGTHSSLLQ
Protocol: as §3

neutrophils = details: in-vitro; Sroussi et al., 2006, 2007; cited from earlier work
[4] = 0.01 mU/ml ADA1, S100 proteins 10 to 2.5 μg/ml

Q: For `CN(C)CCCn1cc(C2=C(c3c[nH]c4ccccc34)C(=O)NC2=O)c2ccccc21` [GFX, Bisindolylmaleimide I, reference compound], which “PMA induced activation of neutrophils oxidative metabolism” value ([1]; 5 μM GFX, 1 μM PMA) is on record?
A: Its value is “significantly inhibited both the PMA induced and the spontaneous activation of neutrophils oxidative metabolism”.

Q: And the “spontaneous activation of neutrophils oxidative metabolism” value ([2]; 5 μM GFX)?
A: The value was “significantly inhibited both the PMA induced and the spontaneous activation of neutrophils oxidative metabolism”.

Q: Which “rate of DCFH oxidation by a PKC activator” value ([2]; 1 μM PMA) does the source give for `CCCCCCCCCCCCCC(=O)O[C@@H]1[C@@H](C)[C@@]2(O)[C@@H](C=C(CO)C[C@]3(O)C(=O)C(C)=C[C@@H]23)[C@@H]2C(C)(C)[C@]12OC(C)=O` [PMA, phorbol 12-myristate 13-acetate, reference compound] here?
A: Its value is “significantly accelerated the rate of DCFH oxidation”.

Q: Which “effect on anti-oxidative effect of S100A8, spontaneous oxidative metabolism” value ([2]; 2.5 μg/ml S100A8, 1 hour) does the source give for `COc1ccccc1NC(=O)Nc1nc(-c2cccnc2)nc2ccccc12` [VUF5574, N-(2-methoxyphenyl)-N′-[2-(3-pyridinyl)-4-quinazolinyl]-urea, reference compound] here?
A: The value was “produces a dose sensitive inhibition the anti-oxidative effect of S100A8 on neutrophil spontaneous oxidative metabolism”.

Q: And the “effect on anti-oxidative effect of S100A8 and S100A9, LPS exposed neutrophils” value ([3]; 10 μM, 10 μg/ml LPS)?
A: Its value is “This anti-oxidative effect was countered”.

Q: With GYPGQV-NH2 [PAR-4, reference compound] as the molecule, how does the “rate of oxidation of the DCFH probe with soluble PAR ligands” value (“rate of oxidation of the DCFH probe” for short) [2] read?
A: The value was “resulted in a significantly accelerated rate of oxidation of the DCFH probe”.

Q: With “S100A9: recombinant human S100A9 calcium binding protein, expressed in Escherichia coli as GST fusion, GST tag cleaved” as the molecule, how does the “PMA activation of neutrophils” value ([1]; dose dependent) read?
A: The value was “produced a dose dependent inhibition of PMA activation of neutrophils”.

Q: What about the “rate of spontaneous oxidation of the DCFH-DA probe” value [2] of the same molecule?
A: Its value is “reduced the rate at which spontaneous oxidation of the DCFH-DA probe occurred in a dose dependent manner”.

Q: And the “oxidative metabolism (fluorescence emission of DCFH-DA probe)” value [2]?
A: Its value is “significantly inhibited oxidative metabolism at all concentrations tested”.

Q: What about the “calcium flux in Chem-3 cells” value (thrombin receptors) of the same molecule?
A: Its value is “trigger calcium flux in Chem-3 cells in a dose dependent manner”.

Q: And the “calcium flux in PAR-4 expressing cells” value (PAR-4; data not shown)?
A: Its value is “activated calcium flux in those cells”.

Q: And the “desensitization of PAR-4 expressing cells to thrombin activation” value (PAR-4; previous treatment with different concentrations, then 10 nM thrombin)?
A: The value was “dose dependently desensitized PAR-4 expressing cells to thrombin activation”.

Q: What about the “LPS stimulation of neutrophil oxidative activity” value ([3]; 2.5 to 10 μg/ml of protein, LPS 10 μg/ml) of the same molecule?
A: The value was “strongly inhibited LPS stimulation of neutrophil oxidative activity”.

Q: And the “neutrophil chemotaxis toward bacterial products (formylated peptides)” value (neutrophils)?
A: The value was “inhibit neutrophil chemotaxis toward bacterial products”.

Q: Which “rate of oxidation of the DCFH probe” value [2] does the source give for SLIGKV-NH2 [PAR-2, reference compound] here?
A: The value was “not PAR-1, PAR-2 or PAR-3”.

Q: With TFLLRN [PAR-1, reference compound] as the molecule, how does the “rate of oxidation of the DCFH probe” value [2] read?
A: The value was “not PAR-1, PAR-2 or PAR-3”.

Q: Which “rate of oxidation of the DCFH probe” value [2] does the source give for TFRGAP-NH2 [PAR-3, reference compound] here?
A: The value was “not PAR-1, PAR-2 or PAR-3”.

Q: Which “spontaneous oxidation of the DCFH probe with protease inhibitors” value [2] does the source give for “elafin: inhibitor of PR3 and elastase (AQEPVKGPVSTKPGSCPIILIRCAMLNPPNRCLKDTDCPGIKKCCEGSCGMACFVPQ; ends and bridges not checked; cysteine pairing not given here; UniProt P19957 61-117, looked up) [reference compound]” here?
A: Its value is “no effect on DCFH oxidation”.

Q: For thrombin [reference compound], which “desensitization of Chem-3 cells to S100A8 or S100A9 stimulation” value (thrombin receptors; 10 nM thrombin first, then 10 μM S100A8 or 10 μM S100A9) is on record?
A: The value was “resulted in a desensitization of Chem-3 cells to further stimulation”.

Q: And the “calcium flux in Chem-3 cells” value (thrombin receptors)?
A: The value was “trigger calcium flux in Chem-3 cells in a dose dependent manner”.

B1: α1 antichymotrypsin: α1-Antichymotrypsin from human plasma; inhibits cathepsin G (protein)
chain: HPNSPLDEENLTQENQDRGTHVDLGLASANVDFAFSLYKQLVLKAPDKNVIFSPLSISTALAFLSLGAHNTTLTEILKGLKFNLTETSEAEIHQSFQHLLRTLNQSSDELQLSMGNAMFVKEQLSLLDRFTEDAKRLYGSEAFATDFQDSAAAKKLINDYVKNGTRGKITDLIKDLDSQTMMVLVNYIFFKAKWEMPFDPQDTHQSRFYLSKKKWVMVPMMSLHHLTIPYFRDEELSCTVVELKYTGNASALFILPDQDKMEEVEAMLLPETLKRWRDSLEFREIGELYLPKFSISRDYNLNDILLQLGIEEAFTSKADLSGITGARNLAVSQVVHKAVLDVFEEGTEASAATAVKITLLSALVETRTIVRFNRPFLMIIVPTDTQNIFFMSKVTNPKQA
Q: For B1, which “spontaneous oxidation of the DCFH probe with protease inhibitors” value [2] is on record?
A: Its value is “caused a marked and significant reduction in the oxidation of the DCFH probe”.

B2: calprotectin: mixture of S100A8 and S100A9 at a 1:1 weight ratio referred to as calprotectin (protein)
chain 1: MLTELEKALNSIIDVYHKYSLIKGNFHAVYRDDLKKLLETECPQYIRKKGADVWFKELDINTDGAVNFQEFLILVIKMGVAAHKKSHEESHKE
chain 2: MTCKMSQLERNIETIINTFHQYSVKLGHPDTLNQGEFKELVRKDLQNFLKKENKNEKVIEHIMEDLDTNADKQLSFEEFIMLMARLTWASHEKMHEGDEGPGHHHKPGLGEGTP
Q: What does the source list for B2?
A: rate of spontaneous oxidation of the DCFH-DA probe [2]: reduced the rate at which spontaneous oxidation of the DCFH-DA probe occurred in a dose dependent manner; oxidative metabolism (fluorescence emission of DCFH-DA probe) [2]: significantly inhibited oxidative metabolism at all concentrations tested

B3: ADA1: Human adenosine deaminase from human erythrocytes; deaminates adenosine to inosine (protein, UniProt P00813 2-363, looked up)
Adenosine deaminase: AQTPAFDKPKVELHVHLDGSIKPETILYYGRRRGIALPANTAEGLLNVIGMDKPLTLPDFLAKFDYYMPAIAGCREAIKRIAYEFVEMKAKEGVVYVEVRYSPHLLANSKVEPIPWNQAEGDLTPDEVVALVGQGLQEGERDFGVKARSILCCMRHQPNWSPKVVELCKKYQQQTVVAIDLAGDETIPGSSLLPGHVQAYQEAVKSGIHRTVHAGEVGSAEVVKEAVDILKTERLGHGYHTLEDQALYNRLRQENMHFEICPWSSYLTGAWKPDTEHAVIRLKNDQANYSLNTDDPLIFKSTLDTDYQMTKRDMGFTEEEFKRLNINAAKSSFLPEDEKRELLDLLYKAYGMPPSASAGQNL
Q: Which results are given for B3?
A: effect on S100A8/S100A9 inhibition of spontaneous oxidative metabolism [2, 4]: partially or fully abrogated; effect on S100A8/S100A9 inhibition of LPS stimulated oxidative metabolism [3, 4]: partially or fully abrogated

— patent US8173598B2, “Myeloid protein activation of anti-inflammatory and anti-hypoxic pathway” (The Board of Trustees of the University of Illinois, priority 2008, dated 2012)
